This note sets out measurements from article PMC9586930, “Molecular insights into the distinct signaling duration for the peptide-induced PTH1R activation” (Nature Communications, 2022).

This assay deals with T1, WT PTH1R (Homo sapiens, UniProt Q03431).
T1 construct: a flag-tag was fused to the N terminal of full-length PTH1R (WT or mutant); expressed in transfected cells; host or cells: HEK293T
T1 sequence (Q03431 27-593): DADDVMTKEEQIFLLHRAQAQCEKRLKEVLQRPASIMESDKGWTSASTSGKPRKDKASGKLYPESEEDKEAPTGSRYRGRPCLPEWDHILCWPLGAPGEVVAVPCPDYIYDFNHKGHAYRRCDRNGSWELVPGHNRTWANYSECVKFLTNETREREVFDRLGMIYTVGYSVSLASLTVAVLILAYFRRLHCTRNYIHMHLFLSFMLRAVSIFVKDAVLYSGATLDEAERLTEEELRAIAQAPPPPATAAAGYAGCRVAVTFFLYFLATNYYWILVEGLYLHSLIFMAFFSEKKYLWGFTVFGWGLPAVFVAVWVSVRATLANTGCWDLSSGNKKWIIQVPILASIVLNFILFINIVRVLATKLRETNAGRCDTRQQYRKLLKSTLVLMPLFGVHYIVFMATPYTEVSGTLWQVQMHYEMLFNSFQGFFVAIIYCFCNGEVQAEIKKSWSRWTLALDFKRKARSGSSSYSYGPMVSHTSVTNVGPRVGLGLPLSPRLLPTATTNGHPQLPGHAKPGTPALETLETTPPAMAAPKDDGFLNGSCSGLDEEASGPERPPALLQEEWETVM
Description: cAMP accumulation assay (GloSensor), wild-type PTH1R. In kind it is cell-based. The following applies: HEK293T cells; for Emax: from curve fitting dose-response data; for EC50: half-maximal stimulatory concentration from curve fitting dose-response data. The procedure:
Human embryonic kidney 293 T (HEK293T, ATCC: CRL-1573) cells were transfected with a plasmid mixture consisting of pcDNA3.1-flag-PTH1R (WT or mutants) and the cAMP biosensor GloSensor-22F (Promega) at a ratio of 2:1 (see Supplementary Table 7 for a list of primers used in this study). After 24 h, transfected cells were plated onto a 384-well plate, which was treated with cell adherent reagent (Applygen) in advance. After another 12 h, cells were treated with Hank’s balanced salt solution for starvation and then incubated in CO2-independent media containing 4% GloSensor cAMP Reagent (Promega) at a volume of 5 μl per well and incubated for 20 min at RT before measurements for baseline luminescence (Spark Multimode microplate reader, TECAN). Next, test ligands were added at different concentrations from 10^−6 to 10^−13 M before second measurement. Finally, data were normalized to 100% of the maximal PTH (1-34) response for WT PTH1R using a sigmoidal dose-response in GraphPad Prism.
Statistical analyses were performed on at least three individual datasets and analysed using GraphPad Prism software. Bars represent differences in the calculated agonist potency (pEC50) and maximum agonist response (Emax) for each mutant relative to the WT receptor. Data are mean± s.e.m. from at least three independent experiments, performed in triplicates. ns, not significant, ^nsP > 0.01; ^*P < 0.01; ^**P < 0.001; ^***P < 0.0001 (one-way analysis of variance (ANOVA) followed by Dunnett’s test, compared with the response of the WT). For dose-response experiments, data were normalized and analyzed using nonlinear curve fitting for the log (agonist) versus response (three parameters) curves.

Non-standard residues stand in square brackets, D forms with d. Residues, ends and D or L forms follow the SMILES beside them. No end group written: not given here. Aib = CC(C)(N)C(=O)O

In general, EC50 refers to the concentration needed to bring the measured effect to its halfway point. Low values mean an effect from little substance, high ones a need for much substance. As for “SVAEHQLMHQRAKWIQDARRRAFLHKLIAEIHTAEI [LAPTH(I5H;A1S)]”, the Emax is listed as 119.8 luminescence counts per 500ms and the EC50 is 1.84 nM.

Consider “AVSEHQLMHQRAKWIQDARRRAFLHKLIAEIHTAEI [LAPTH(I5H;A3S)]”, for which the Emax is on record as 125.3 luminescence counts per 500ms and the EC50 was 0.39 nM.

Take “SVSEHQLMHNLGKHIQDARRRAFLHKLIAEIHTAEI [LA-PTH (I5H-PTH;NT)]”: the Emax is 102.1 luminescence counts per 500ms and the EC50 was 1.98 nM.

Consider `CSCC[C@H](NC(=O)[C@H](CC(C)C)NC(=O)[C@H](CCC(N)=O)NC(=O)[C@H](Cc1c[nH]cn1)NC(=O)[C@H](CCC(=O)O)NC(=O)[C@H](CO)NC(=O)[C@@H](NC(=O)[C@@H](N)CO)C(C)C)C(=O)N[C@@H](Cc1c[nH]cn1)C(=O)N[C@@H](CC(N)=O)C(=O)N[C@@H](CC(C)C)C(=O)NCC(=O)N[C@@H](CCCCN)C(=O)N[C@@H](Cc1c[nH]cn1)C(=O)N[C@@H](CC(C)C)C(=O)N[C@@H](CC(N)=O)C(=O)N[C@@H](CO)C(=O)N[C@@H](CCSC)C(=O)N[C@@H](CCC(=O)O)C(=O)N[C@@H](CCCNC(=N)N)C(=O)N[C@H](C(=O)N[C@@H](CCC(=O)O)C(=O)N[C@@H](Cc1c[nH]c2ccccc12)C(=O)N[C@@H](CC(C)C)C(=O)N[C@@H](CCCNC(=N)N)C(=O)N[C@@H](CCCCN)C(=O)N[C@@H](CCCCN)C(=O)N[C@@H](CC(C)C)C(=O)N[C@@H](CCC(N)=O)C(=O)N[C@@H](CC(=O)O)C(=O)N[C@H](C(=O)N[C@@H](Cc1c[nH]cn1)C(=O)N[C@@H](CC(N)=O)C(=O)N[C@@H](Cc1ccccc1)C(=O)O)C(C)C)C(C)C` [PTH(I5H)], for which the response was half-maximal at 23.6 nM (EC50).

Turning to “AVAEHQLMHQRAKWIQDLRRRFFLHHLIAEIHTAEI-NH2 [LAPTH(1-14,I5H)/PTHrP(15-34)]”, the Emax was 142.8 luminescence counts per 500ms and the EC50 is 1.76 nM.

On to “AVAEHQLMHQRAKHIQDARRRAFLHKLIAEIHTAEI [LAPTH(I5H;W14H)]”, for which the Emax is given as 117.8 luminescence counts per 500ms and a half-maximal response (EC50) required 0.493 nM.

In the case of “AVAEIQLLMHQRAKSIQDARRRAFLHKLIAEIHTAEI [LAPTH(W14H)]”, the Emax is reported as 107.5 luminescence counts per 500ms.

“AVAEHQLMHQRAKWIQDARRRAFLHKLIAEIHTAEI [LAPTH(I5H)]” gave an EC50 of 0.183 nM.

For the compound “AVAEHQLMHQRAKWLNSMERVEWLRKKLQDVHNF [LAPTH(1-14,I5H)/PTH(15-34)]”, the Emax was 129.6 luminescence counts per 500ms and the EC50 is 0.643 nM.

Regarding “AVAEHQLMHQRGKWIQDARRRAFLHKLIAEIHTAEI [LAPTH(I5H;A12G)]”, the Emax is 129.5 luminescence counts per 500ms and it took 2.08 nM to reach a half-maximal effect (EC50).

In the case of `CC[C@H](C)[C@H](NC(=O)[C@H](CO)NC(=O)[C@H](CCCCN)NC(=O)CNC(=O)[C@H](CCCCN)NC(=O)[C@H](CC(=O)O)NC(=O)[C@H](Cc1c[nH]cn1)NC(=O)[C@H](CC(C)C)NC(=O)[C@H](CC(C)C)NC(=O)[C@H](CCC(N)=O)NC(=O)[C@@H](NC(=O)[C@H](CCC(=O)O)NC(=O)[C@H](CO)NC(=O)[C@@H](NC(=O)[C@H](C)N)C(C)C)[C@@H](C)CC)C(=O)N[C@@H](CCC(N)=O)C(=O)N[C@@H](CC(=O)O)C(=O)N[C@@H](CC(C)C)C(=O)N[C@@H](CCCNC(=N)N)C(=O)N[C@@H](CCCNC(=N)N)C(=O)N[C@@H](CCCNC(=N)N)C(=O)N[C@@H](CCC(=O)O)C(=O)N[C@@H](CC(C)C)C(=O)N[C@@H](CC(C)C)C(=O)N[C@@H](CCC(=O)O)C(=O)N[C@@H](CCCCN)C(=O)N[C@@H](CC(C)C)C(=O)N[C@@H](CC(C)C)C(=O)NC(C)(C)C(=O)N[C@@H](CCCCN)C(=O)N[C@@H](CC(C)C)C(=O)N[C@@H](Cc1c[nH]cn1)C(=O)N[C@H](C(=O)N[C@@H](C)C(N)=O)[C@@H](C)O` [ABL(H5I)] (H-AVSEIQLLHDKGKSIQDLRRRELLEKLL[Aib]KLHTA-NH2), the Emax is 104.1 luminescence counts per 500ms and the response was half-maximal at 0.32 nM (EC50).

In the case of “AVAEHQLMHQLAKWIQDARRRAFLHKLIAEIHTAEI [LAPTH(I5H;R11L)]”, the Emax is 106.9 luminescence counts per 500ms and the EC50 was 2.08 nM.

For “AVAEHQLMHNRAKWIQDARRRAFLHKLIAEIHTAEI [LAPTH(I5H;Q10N)]”, the Emax is reported as 117.7 luminescence counts per 500ms and a half-maximal effect (EC50) was put at 1.4 nM.

“AVAEIQLLHQRAKWIQDARRRAFLHKLIAEIHTAEI [LAPTH(M8L)]”: it took 3.45 nM to reach a half-maximal effect (EC50).
